From patent US8206732B2, “Pyrithione biocides enhanced by silver, copper, or zinc ions” (Arch Chemicals, Inc., priority 1999, dated 2012)
“And” between values parts separate entries of the source, which are not always exact repeats. Identical values can stand only once.

Key:
[1] = system: Staphylococcus aureus 27217; assay: Checkerboard MIC test, pyrithiones with silver salts; type: cell-based; conditions: silver ion alone or in the inhibitory mixture; TSB pH 7.3, 35° C., 1 to 2 days
[2] = system: Pseudomonas aeruginosa ATCC 9027; assay: MIC in Tryptic Soy Broth, microtiter (Example 1); type: cell-based; conditions: TSB, 28° C., incubated 5-6 days; single agent (NaPT without Cu)
two cultures of fungi = assay: Challenge test in soluble oil metalworking fluid, fungi (Example 6); type: cell-based; conditions: soluble oil MWF, 10 ppm Zn, 100 ppm NaPT, 50 ppm ZPT or 50 ppm CuPT as in column head
[3] = system: Aspergillus niger ATCC 6275; assay: MIC in Tryptic Soy Broth, microtiter (Example 1); type: cell-based
[4] = system: seven cultures of bacteria; assay: Challenge test in soluble oil metalworking fluid, bacteria (Example 6); type: cell-based; conditions: soluble oil MWF, 10 ppm Zn, 100 ppm NaPT, 50 ppm ZPT or 50 ppm CuPT as in column head
[5] = system: Pseudomonas aeruginosa NCIMB 6749; assay: Checkerboard MIC test, pyrithiones with zinc salts; type: cell-based; conditions: TSB, 28 C, 3 days
[6] = system: Pseudomonas aeruginosa NCIMB 6749; assay: Zone of inhibition test (paper disc on TSA); type: cell-based; conditions: 6.5 mm discs; 0.135% pyrithione, 0.1% ZnCl2 or both; 28° C., 24 hr
[7] = system: Staphylococcus aureus ATCC 27217; assay: Zone of inhibition test (paper disc on TSA); type: cell-based; conditions: 6.5 mm discs; 0.135% pyrithione, 0.1% ZnCl2 or both; 28° C., 24 hr
[8] = system: Staphylococcus aureus ATCC 27217; assay: Checkerboard MIC test, pyrithiones with zinc salts; type: cell-based; conditions: TSB, 28 C, 3 days
[9] = system: Escherichia coli ATCC 10536; assay: Zone of inhibition test (paper disc on TSA); type: cell-based; conditions: 6.5 mm discs; 0.135% pyrithione, 0.1% ZnCl2 or both; 28° C., 24 hr
Fusarium sp. = assay: Checkerboard MIC test, pyrithiones with zinc salts; type: cell-based; conditions: TSB, 28 C, 5 days
Procedure: Mixtures of pyrithione and zinc or silver in various proportions were tested for relative efficacy by a modification of the procedure described by Dougherty, et al.
Equal volumes of bacteria (10^6 cells/ml) or fungi (10^5 spores/ml) were added to each microtiter plate well. The plates were incubated at 28 C for 3 days (bacteria) or 5 days (fungi), and the minimum inhibitory concentration (MIC) of biocide was determined. The Fractional Inhibitory Concentration (FIC=concentration of biocide in an inhibitory mixture divided by the MIC of the pure biocide) was determined, and the FIC Index (sum of the two FIC's) was calculated. The type of interaction was categorized according to the magnitude of the Index: Synergistic (<1), Additive (1), or Antagonistic (>1).

Ps. aeruginosa ATCC 9027 = assay: Checkerboard MIC test, pyrithiones with zinc salts; type: cell-based, Pseudomonas aeruginosa; conditions: Zn(II) from ZnO, alone or in the inhibitory mixture; TSB, 28 C, 3 days
[10] = system: Aspergillus niger ATCC 6275; assay: Checkerboard MIC test, pyrithiones with zinc salts; type: cell-based; conditions: Zn(II) from ZnO, alone or in the inhibitory mixture; TSB, 28 C, 5 days
Fusarium sp. biofilm = assay: Viable biofilm cells on discs in metalworking fluid (Example 5); type: cell-based; conditions: polycarbonate disc, 100 PPM NaPT, 10 PPM Zn (II) or both, 4 days after treatment
Procedure: (§1) Experiments were conducted to investigate the efficacy of the composition of the present invention to inhibit the survival, growth, and proliferation of free-living and biofilm populations of bacteria and fungi in metalworking fluids. […] Metalworking fluids (MWF) employed included 5% soluble oil MWF, 5% semi-synthetic MWF, or 5% synthetic MWS. For testing against bacteria, metalworking fluids were supplemented with 2% (weight-to-weight ratio (w:w)) of 5 g/L yeast extract (Difco), Metalworking fluids were supplemented with 2% (weight-to-weight (w:w)) of Tryptic Soy Broth (Difco) for fungal tests.
(§2) For each experiment, three ml of a 5% metalworking fluid was added to each of twelve, sterile, 16 mm×150 mm glass culture tubes. […] Fusarium sp. was added to the tubes to final concentrations of 10^5 spores/ml for the fungal tests. Tubes incubated for 3 days at 28° C. and 180 rpms.
(§3) After the treatments additions were performed, the culture tubes resumed incubation at 28° C., 180 rpms for an additional 4 days.
(§4) After 4 days, culture tubes were removed from the incubator and viable counts of organisms from the bulk MWF fluid and the biofilm were determined using serial dilution and drop plating techniques. For biofilms, polycarbonate discs were removed from tubes, dip-rinsed in three successive washes of de-ionized water to remove loosely attached cells, and transferred to 25 mm×150 mm culture tubes containing 10 ml of sterile, de-ionized water. Biofilms were removed from discs and resuspended by vortexing tubes for 30 seconds. Bacteria were plated on to R2A Agar plates and incubated at 37° C. Fungi were plated onto Malt Agar plates and incubated at 28° C. Mean colony forming units per ml (for bulk) and per square cm (cm^2) biofilm were determined for each experimental treatment.

[11] = system: Fusarium sp. free-living cells; assay: Viable free-living cells in bulk metalworking fluid (Example 5); type: cell-based; conditions: 100 PPM NaPT, 10 PPM Zn (II) or both, 4 days after treatment
Procedure: as §1, §2, §3, §4

E. coli 8739 biofilm = assay: Viable biofilm cells on discs in metalworking fluid (Example 5); type: cell-based, Escherichia coli; conditions: 10% TSB, polycarbonate disc; 100 PPM NaPT, 10 PPM Zn (II) or both; 4 days after treatment
[12] = system: Fusarium sp. and Cephalosporium sp.; assay: Various mixtures of NaPT and Zn(II) against fungi in 5% metalworking fluid (Example 8, Table 10b); type: cell-based
[13] = system: E. coli 8739 free-living cells; assay: Viable free-living cells in bulk metalworking fluid (Example 5); type: cell-based, Escherichia coli; conditions: 10% TSB; 100 PPM NaPT, 10 PPM Zn (II) or both; 4 days after treatment
[14] = system: mixed bacteria (Pseudomonas aeruginosa 9027, Escherichia coli 8739, Pseudomonas fluorescens 12201, Pseudomonas rubescens 12202, Pseudomonas putida); assay: Various mixtures of NaPT and Zn(II) against bacteria in 5% metalworking fluid (Example 8, Table 10a); type: cell-based, Pseudomonas spp.
[15] = pyrithione alone or pyrithione concentration in the inhibitory mixture
[16] = Zn(II) alone or Zn(II) concentration in the inhibitory mixture
[17] = semi-synthetic, Zn (II) 10 PPM, Day 1
[18] = semi-synthetic, Zn (II) 10 PPM, Day 2
[19] = semi-synthetic, Zn (II) 10 PPM, Day 7
[20] = semi-synthetic, Zn (II) 20 PPM, Day 1
[21] = semi-synthetic, Zn (II) 20 PPM, Day 2
[22] = semi-synthetic, Zn (II) 20 PPM, Day 7
[23] = semi-synthetic, Zn (II) 30 PPM, Day 1
[24] = semi-synthetic, Zn (II) 30 PPM, Day 2
[25] = semi-synthetic, Zn (II) 30 PPM, Day 7
[26] = semi-synthetic, Zn (II) 100 PPM, Day 1
[27] = semi-synthetic, Zn (II) 100 PPM, Day 4
[28] = semi-synthetic, Zn (II) 500 PPM, Day 1
[29] = semi-synthetic, Zn (II) 500 PPM, Day 4
[30] = synthetic, Zn (II) 10 PPM, Day 1
[31] = synthetic, Zn (II) 20 PPM, Day 1

## [Ag+].[Ag+].[O-2] [Ag2O]
[1]
  MIC Ag^+1 Ion: 29.8 ppm

## On1ccccc1=S.On1ccccc1=S.[Cu] [CuPT2, copper pyrithione]
[2]
  MIC: >1024 ppm
Two cultures of fungi; DAY 0
  FUNGI (cfu/ml): 2.4 × 10^5 cfu/ml
Two cultures of fungi; DAY 6
  FUNGI (cfu/ml): 1000 cfu/ml
Two cultures of fungi; DAY 13
  FUNGI (cfu/ml): 680 cfu/ml
Two cultures of fungi; DAY 20
  FUNGI (cfu/ml): 370 cfu/ml
[3]; Aspergillus niger
  molar MIC: 51 µM
[3]; TSB, 28° C., incubated 7-8 days, single agent (NaPT without Cu)
  MIC: 16 ppm
[4]; DAY 0
  BACTERIA (cfu/ml): 3.2 × 10^7 cfu/ml
[4]; DAY 6
  BACTERIA (cfu/ml): 1.5 × 10^7 cfu/ml
[4]; DAY 13
  BACTERIA (cfu/ml): 9.7 × 10^6 cfu/ml
[4]; DAY 20
  BACTERIA (cfu/ml): 1.9 × 10^6 cfu/ml

## O.O.O.O=S(=O)([O-])[O-].[Mg+2].[O-][n+]1ccccc1SSc1cccc[n+]1[O-] [MDS, MgSO4.3H2O adduct of 2,2′-dithiopyridine-1,1′-dioxide]
[5]; [15]
  MIC Pyrithione: 1024 ppm
[6]
  Zone of Inhibition: 0 mm
[7]
  Zone of Inhibition: 28 mm
[8]; [15]
  MIC Pyrithione: 8 ppm
[9]
  Zone of Inhibition: 31 mm
Fusarium sp.; [15]
  MIC Pyrithione: >1843 ppm

## [Cl-].[Cl-].[Zn+2] [ZnCl2]
[6]
  Zone of Inhibition: 0 mm
[7]
  Zone of Inhibition: 0 mm
[9]
  Zone of Inhibition: 0 mm

## [O]=[Zn] [ZnO]
Ps. aeruginosa ATCC 9027
  MIC Zn(II): >1645 ppm
[10]
  MIC Zn(II): >1645 ppm

## O=S(=O)([O-])[O-].[Zn+2] [ZnSO4]
[5]; [16]
  MIC Zn(II): >200 ppm and <200 ppm
Fusarium sp. biofilm; 5% semisynth. MWF
  viable biofilm microorganisms: 27 cells/cm^2
Fusarium sp. biofilm; 5% synthetic MWF
  viable biofilm microorganisms: 1.4 × 10^5 cells/cm^2
Fusarium sp. biofilm; 100% TSB
  viable biofilm microorganisms: 3.3 × 10^4 cells/cm^2
[11]; 5% semisynth. MWF
  viable free-living microorganisms: 4.6 × 10^5 cells/ml
[11]; 5% synthetic MWF
  viable free-living microorganisms: 8.7 × 10^6 cells/ml
[11]; 100% TSB
  viable free-living microorganisms: 3.4 × 10^6 cells/ml
E. coli 8739 biofilm
  viable biofilm microorganisms: 6.5 × 10^5 cells/cm^2
[12]; [17]
  Fungi/ml: 1.0 × 10^4 Fungi/ml
[12]; [18]
  Fungi/ml: 5.0 × 10^3 Fungi/ml
[12]; [19]
  Fungi/ml: 4.8 × 10^2 Fungi/ml
[12]; [20]
  Fungi/ml: 1.2 × 10^4 Fungi/ml
[12]; [21]
  Fungi/ml: 1.6 × 10^4 Fungi/ml
[12]; [22]
  Fungi/ml: 4.0 × 10^3 Fungi/ml
[12]; [23]
  Fungi/ml: 1.2 × 10^4 Fungi/ml
[12]; [24]
  Fungi/ml: 1.5 × 10^4 Fungi/ml
[12]; [25]
  Fungi/ml: 1.3 × 10^3 Fungi/ml
[12]; [26]
  Fungi/ml: 3.3 × 10^4 Fungi/ml
[12]; [27]
  Fungi/ml: 1.1 × 10^4 Fungi/ml
[12]; [28]
  Fungi/ml: 4.4 × 10^4 Fungi/ml
[12]; [29]
  Fungi/ml: 2.0 × 10^4 Fungi/ml
[12]; semi-synthetic, Zn (II) 1000 PPM, Day 1
  Fungi/ml: 4.1 × 10^4 Fungi/ml
[12]; semi-synthetic, Zn (II) 1000 PPM, Day 4
  Fungi/ml: 1.0 × 10^4 Fungi/ml
[12]; [30]
  Fungi/ml: 7.5 × 10^4 Fungi/ml
[12]; synthetic, Zn (II) 10 PPM, Day 2
  Fungi/ml: 3.1 × 10^4 Fungi/ml
[12]; synthetic, Zn (II) 10 PPM, Day 7
  Fungi/ml: 1.4 × 10^4 Fungi/ml
[12]; [31]
  Fungi/ml: 3.9 × 10^4 Fungi/ml
[12]; synthetic, Zn (II) 20 PPM, Day 2
  Fungi/ml: 2.2 × 10^4 Fungi/ml
[12]; synthetic, Zn (II) 20 PPM, Day 7
  Fungi/ml: 1.3 × 10^4 Fungi/ml
[12]; synthetic, Zn (II) 30 PPM, Day 1
  Fungi/ml: 4.2 × 10^4 Fungi/ml
[12]; synthetic, Zn (II) 30 PPM, Day 2
  Fungi/ml: 2.1 × 10^4 Fungi/ml
[12]; synthetic, Zn (II) 30 PPM, Day 7
  Fungi/ml: 5.0 × 10^3 Fungi/ml
[12]; synthetic, Zn (II) 100 PPM, Day 1
  Fungi/ml: 2.1 × 10^4 Fungi/ml
[12]; synthetic, Zn (II) 100 PPM, Day 4
  Fungi/ml: 6.0 × 10^3 Fungi/ml
[12]; synthetic, Zn (II) 500 PPM, Day 1
  Fungi/ml: 9.0 × 10^3 Fungi/ml
[12]; synthetic, Zn (II) 500 PPM, Day 4
  Fungi/ml: 5.0 × 10^3 Fungi/ml
[12]; synthetic, Zn (II) 1000 PPM, Day 1
  Fungi/ml: 4.0 × 10^3 Fungi/ml
[12]; synthetic, Zn (II) 1000 PPM, Day 4
  Fungi/ml: 2.0 × 10^3 Fungi/ml
[12]; synthetic, Zn (II) 5000 PPM, Day 1
  Fungi/ml: 2.0 × 10^3 Fungi/ml
[12]; synthetic, Zn (II) 5000 PPM, Day 4
  Fungi/ml: 4.0 × 10^3 Fungi/ml
[8]; [16]
  MIC Zn(II): 200 ppm
[13]
  viable free-living microorganisms: 5.8 × 10^8 cells/ml
[14]; [17]
  Bacteria/ml: 170 Bacteria/ml
[14]; [18]
  Bacteria/ml: 3.2 × 10^5 Bacteria/ml
[14]; [19]
  Bacteria/ml: 4.8 × 10^4 Bacteria/ml
[14]; [20]
  Bacteria/ml: 1.5 × 10^5 Bacteria/ml
[14]; [21]
  Bacteria/ml: 1.4 × 10^4 Bacteria/ml
[14]; [22]
  Bacteria/ml: 4.0 × 10^3 Bacteria/ml
[14]; [23]
  Bacteria/ml: 1.7 × 10^3 Bacteria/ml
[14]; [24]
  Bacteria/ml: 1.5 × 10^5 Bacteria/ml
[14]; [25]
  Bacteria/ml: 1.3 × 10^5 Bacteria/ml
[14]; [26]
  Bacteria/ml: 4.9 × 10^4 Bacteria/ml
[14]; [27]
  Bacteria/ml: 5.7 × 10^4 Bacteria/ml
[14]; [28]
  Bacteria/ml: 9.5 × 10^4 Bacteria/ml
[14]; [29]
  Bacteria/ml: 1.1 × 10^5 Bacteria/ml
[14]; [30]
  Bacteria/ml: 30 Bacteria/ml
[14]; [31]
  Bacteria/ml: 190 Bacteria/ml
Fusarium sp.; [16]
  MIC Zn(II): >200 ppm and <200 ppm
